The assay deals with Aldo-keto reductase family 1 member B1 (Homo sapiens, UniProt P15121). Put plainly: Binding affinity for human Aldose reductase 2 expressed in Escherichia coli.
For `NC(=O)[C@H]1C[C@]2(NC(=O)NC2=O)c2cc(F)ccc2O1` [(R,S)-FIDARESTAT], the IC50 (as a rule, the concentration needed to halve the response being measured) is 0.57 µM.

Compound `NC(=O)[C@H]1C[C@@]2(NC(=O)NC2=O)c2cc(F)ccc2O1` (mixture of isomers) returned a 50% inhibitory concentration (IC50) of 40 µM. With `NC(=O)[C@@H]1C[C@@]2(NC(=O)NC2=O)c2cc(F)ccc2O1` [(S,R)-FIDARESTAT], the IC50 is 11 µM. Against the preceding compound, the IC50 is about 3.6-fold lower. The figure for `NC(=O)[C@@H]1C[C@]2(NC(=O)NC2=O)c2cc(F)ccc2O1` [FIDARESTAT] is 0.03 µM.

Values taken from ChEMBL document CHEMBL1138737, “High-resolution structures of human aldose reductase holoenzyme in complex with stereoisomers of the potent inhibitor Fidarestat: stereospecific interaction between the enzyme and a cyclic imide type inhibitor” (J Med Chem, 2004).
